Source: BindingDB's records for doi:10.1021/jm00045a017 (National Taiwan University, 1994)

Assay: binding affinity against sigma Opioid receptor was measured by using labeled ligand [3H]-SKF- 10,047 (1 nM)

Question: For `COc1cccc2c1O[C@H]1C(=O)CC[C@H]3CN(CC4CC4)CC[C@@]231` [(4aR,7aR,12bS)-3-Cyclopropylmethyl-9-methoxy-2,3,4,4a,5,6-hexahydro-1H-8-oxa-3-aza-benzo[d]fluoren-7-one], which Ki is on record?
Answer: 440 nM

Question: With `Oc1cccc2c1O[C@H]1CCC[C@H]3CN(CC4CC4)CC[C@@]231` [(-)-trans-3-Cyclopropylmethyl-2,3,4,4aalpha,5,6,7,7aalpha-octahydro-1H-benzo[4,5]furo[3,2-e]isoquinolin-9-ol] as the compound, how does the Ki read?
Answer: 21 nM

Question: Which Ki does the source give for `COc1cccc2c1O[C@H]1[C@@H](O)CC[C@H]3CN(CC4CC4)CC[C@@]231` [(4aR,7S,7aR,12bS)-3-Cyclopropylmethyl-9-methoxy-2,3,4,4a,5,6,7,7a-octahydro-1H-8-oxa-3-aza-benzo[d]fluoren-7-ol] here?
Answer: 410 nM

Question: With `O=C1CC[C@H]2CN(CC3CC3)CC[C@@]23c2cccc(O)c2O[C@@H]13` [(4aR,7aR,12bS)-3-Cyclopropylmethyl-9-hydroxy-2,3,4,4a,5,6-hexahydro-1H-8-oxa-3-aza-benzo[d]fluoren-7-one] as the compound, how does the Ki read?
Answer: 710 nM

Question: Which Ki does the source give for `O=C1CC[C@@H]2CN(CC3CC3)CC[C@@]23c2cccc(O)c2O[C@@H]13` [(4aS,7aR,12bS)-3-Cyclopropylmethyl-9-hydroxy-2,3,4,4a,5,6-hexahydro-1H-8-oxa-3-aza-benzo[d]fluoren-7-one] here?
Answer: 310 nM

Question: With `Oc1cccc2c1O[C@H]1[C@@H](O)CC[C@H]3CN(CC4CC4)CC[C@@]231` [(4aR,7S,7aR,12bS)-3-Cyclopropylmethyl-2,3,4,4a,5,6,7,7a-octahydro-1H-8-oxa-3-aza-benzo[d]fluorene-7,9-diol] as the compound, how does the Ki read?
Answer: 580 nM

Question: For `CN1CC[C@]23c4cccc(O)c4O[C@H]2C(=O)CC[C@H]3C1` [(4aR,7aR,12bS)-9-Hydroxy-3-methyl-2,3,4,4a,5,6-hexahydro-1H-8-oxa-3-aza-benzo[d]fluoren-7-one], which Ki is on record?
Answer: 2090 nM

Question: Which Ki does the source give for `Oc1cccc2c1O[C@H]1[C@H](O)CC[C@@H]3CN(CC4CC4)CC[C@@]231` [(4aS,7R,7aR,12bS)-3-Cyclopropylmethyl-2,3,4,4a,5,6,7,7a-octahydro-1H-8-oxa-3-aza-benzo[d]fluorene-7,9-diol] here?
Answer: 300 nM
